The values below are quoted from earlier work in US11484035B2, “Synergistic composition of a nematicide” (TELLURIS BIOTECH INDIA PRIVATE LIMITED, priority 2017, dated 2022).

For this data set, the system named is nematodes. The note with it: individual peptides.

“RQMLDRKLLLGNVPKQMTC (Caenorhabditis elegans) [Peptide 3, 19 amino acid peptide, 112-130 amino acid stretch of CED-4 protein]”: the “effective concentration for nematicidal activity” value (shortened to “effective concentration”) is recorded as “about 1 mg/ml”.

As to “DLLRPVVIAPQFSRQ (Caenorhabditis elegans) [Peptide 2, 15 amino acid peptide, 99-113 amino acid stretch of CED-4 protein]”, the “effective concentration” value is on record as “about 1 mg/ml”.

On to “FPKFMQLHQKFY (Caenorhabditis elegans) [Peptide 12, 12 amino acid peptide, 529-540 amino acid stretch of CED-4 protein]”, for which the “effective concentration” value is “about 1 mg/ml”.
